From patent publication EP0671905B1, “STABLE PROTEIN: PHOSPHOLIPID COMPOSITIONS AND METHODS” (Amgen Inc., priority 1993, dated 1995)

Experiments:
[1] = Tryptophan fluorescence emission spectra of protein:lipid complexes; type: physicochemical; settings: mole ratio lipid:rhG-CSF 100:1
Experimental: There are two tryptophan residues in rhG-CSF that are quite sensitive to local environmental conditions. Therefore, analysis was performed to determine the rhG-CSF tryptophan fluorescence when the rhG-CSF is contacted with a liposome. […] An excellent review of tryptophan fluorescence analysis is […], by J. Lakowicz, Chap 11 (Plenum Press, New York, 1983).
Tryptophan fluorescence of the G-CSF:lipid complexes (as described above) was assayed by exciting the samples at 280 nm and while scanning the emission from 285 nm to 420 nm in 1nm increments at a rate of 1 nm/sec. The sample volume was 3 ml and the final concentration of G-CSF was 0.2 mg/ml for all samples. The lipid:G-CSF ratios varied. All fluorescence measurements were carried out using a PTI Alphascan fluorometer (South Brunswick, NJ). All measurements were performed at 25°C and this temperature was maintained through the use of a water-jacketed cuvette holder connected to a circulating water bath. Emission spectra were collected and analyzed using the data software provided by PTI.
In this example, the ability of rhG-CSF to interact with other phospholipids was determined using comparisons of F/FO intensity and emission maximums as described above. In each instance, the mole ratio of lipid:rhG-CSF was 100:1.
In this example, chemically modified G-CSF (pegylated G-CSF (PEG-G-CSF)) and G-CSF obtained as a product of eucaryotic host cell expression (CHO-G-CSF) were tested for their ability to interact with negatively charged lipid vesicles. For the CHO-G-CSF, the determinations were made using comparisons of F/FO intensity and emission maximums (as described in Example 1 above). In each instance, the mole ratio of lipid:protein was 100:1. For the PEG-G-CSF, the determination was based upon circular dichroism analysis.

[2] = Circular dichroism at 222 nm, thermal stability and temperature cycling; type: physicochemical; settings: for effect on secondary structure of rhG-CSF (circular dichroism): 150:1 lipid:rhG-CSF ratio, heated to 95°C and cooled to 10°C; for thermal stability of GM-CSF (circular dichroism): lipid:GM-CSF ratio 17:1, PBS pH 7.0, heated to 90°C and cooled to 10°C
murine bone marrow cells = assay: In vitro activity: G-CSF dependent uptake of [3H]-thymidine by bone marrow cells; type: cell-based; settings: lipid mixed with rhG-CSF, lipid:protein ratio 100:1; control untreated rhG-CSF without lipid
Experimental: In this example, the effect of the rhG-CSF:DOPG interaction as it relates to the biological activity of rhG-CSF was determined. The in vitro activity of rhG-CSF was assayed utilizing the G-CSF dependent uptake of [^3H]-thymidine by murine bone marrow cells as described in Zsebo et al., Immunobiology 172: 175-184 (1986). All activity assays were performed in triplicate. In vivo activity was determined by subcutaneous injection of hamsters (rhG-CSF dose of 100 µg/kg) and measurements of white blood cell (WBC) count.
After heating to 85°C for 10 minutes, rhG-CSF has undetectable activity and the protein precipitates. […] B. The ability of various lipids to stabilize rhG-CSF during freeze drying was also studied. Samples of rhG-CSF in combination with various lipids were freeze dried and assayed (as described above) for activity.

| SMILES | effect on emission maximum and fluorescence intensity of rhG-CSF [1] | insertion of rhG-CSF into lipid vesicles (F/FO and emission maximum) [1] | effect on secondary structure of rhG-CSF (circular dichroism) [2] | thermal stability of GM-CSF (circular dichroism) [2] | retention of rhG-CSF bioactivity after freeze drying (murine bone marrow cells) |
| --- | --- | --- | --- | --- | --- |
| CCCCCCCCCCCCCC(=O)OC[C@H](COP(=O)([O-])OCC[N+](C)(C)C)OC(=O)CCCCCCCCCCCCC [DMPC, reference compound] | little if no effect | – | – | – | – |
| CCCCCCCCCCCCCC(=O)OCC(COP(=O)(O)OCC(O)CO)OC(=O)CCCCCCCCCCCCC (centres unmarked) [DMPG, dimyristoylphosphatidylglycerol] | – | can insert | stabilize the secondary structure of rhG-CSF | recovery of secondary structure after heating | ~100% |
| CCCCCCCC/C=C\CCCCCCCC(=O)OC[C@H](COP(=O)([O-])OCC[N+](C)(C)C)OC(=O)CCCCCCC/C=C\CCCCCCCC [DOPC, reference compound] | little if no effect | – | – | – | – |
| CCCCCCCC/C=C\CCCCCCCC(=O)OC[C@H](COP(=O)(O)OCC(O)CO)OC(=O)CCCCCCC/C=C\CCCCCCCC (some centres unmarked) [DOPG, dioleoylphosphatidylglycerol] | – | can insert | – | – | ~100% |
| CCCCCCCCCCCCCCCC(=O)OC[C@H](COP(=O)([O-])OCC[N+](C)(C)C)OC(=O)CCCCCCCCCCCCCCC [DPPC, reference compound] | little if no effect | – | – | – | – |
| CCCCCCCCCCCCCCCC(=O)OCC(COP(=O)(O)OCC(O)CO)OC(=O)CCCCCCCCCCCCCCC (centres unmarked) [DPPG, dipalmitoylphosphatidylglycerol] | – | can insert | stabilize the secondary structure of rhG-CSF | recovery of secondary structure after heating | ~100% |
| CCCCCCCCC=CCCCCCCCC(=O)OCC(COP(=O)(O)OCCNC(=O)CCCC(=O)O)OC(=O)CCCCCCCC=CCCCCCCCC (centres unmarked) [NG-DOPE] | – | improved insertion of the rhG-CSF than DOPE | – | – | – |
